Experimental data taken from patent publication US9403813B2, “Azetidine amide derivatives as orexin receptor antagonists” (ACTELION PHARMACEUTICALS LTD, priority 2013, dated 2016).

Legend:
[1] = target: human orexin-2 receptor (Homo sapiens (Human), UniProt O43614); test: Intracellular calcium measurements (FLIPR), antagonism of orexin-A response; assay type: cell-based; details: CHO cells expressing human orexin-2 receptor, 3 nM orexin-A, geometric mean if determined several times, read-out: IC50 OX2
Sequence of human orexin-2 receptor (O43614 whole entry): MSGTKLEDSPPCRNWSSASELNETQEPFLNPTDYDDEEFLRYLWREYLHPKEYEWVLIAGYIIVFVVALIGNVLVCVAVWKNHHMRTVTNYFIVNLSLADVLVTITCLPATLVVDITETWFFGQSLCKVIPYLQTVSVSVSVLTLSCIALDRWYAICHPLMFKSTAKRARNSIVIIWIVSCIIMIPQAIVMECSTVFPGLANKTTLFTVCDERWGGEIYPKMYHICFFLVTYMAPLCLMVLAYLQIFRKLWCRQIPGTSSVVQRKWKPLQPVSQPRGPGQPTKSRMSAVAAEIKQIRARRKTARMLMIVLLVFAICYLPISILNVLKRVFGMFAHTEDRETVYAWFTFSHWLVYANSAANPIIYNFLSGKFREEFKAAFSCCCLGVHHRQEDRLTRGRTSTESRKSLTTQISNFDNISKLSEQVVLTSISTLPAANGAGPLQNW
Outline: (§1)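 CHO cells expressing human OX1 or OX2 receptor, loaded with fluo-4 AM plus probenecid, preincubated with antagonist 120 min before 3 nM orexin-A challenge. FLIPR calcium peak heights compared with agonist-plus-vehicle response. IC50 possibly normalized to on-plate reference; geometric mean of repeat determinations.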

[2] = target: human orexin-1 receptor (Homo sapiens (Human), UniProt O43613); test: as above; assay type: cell-based; details: CHO cells expressing human orexin-1 receptor, 3 nM orexin-A, geometric mean if determined several times, read-out: IC50 OX1
Sequence of human orexin-1 receptor (O43613 whole entry): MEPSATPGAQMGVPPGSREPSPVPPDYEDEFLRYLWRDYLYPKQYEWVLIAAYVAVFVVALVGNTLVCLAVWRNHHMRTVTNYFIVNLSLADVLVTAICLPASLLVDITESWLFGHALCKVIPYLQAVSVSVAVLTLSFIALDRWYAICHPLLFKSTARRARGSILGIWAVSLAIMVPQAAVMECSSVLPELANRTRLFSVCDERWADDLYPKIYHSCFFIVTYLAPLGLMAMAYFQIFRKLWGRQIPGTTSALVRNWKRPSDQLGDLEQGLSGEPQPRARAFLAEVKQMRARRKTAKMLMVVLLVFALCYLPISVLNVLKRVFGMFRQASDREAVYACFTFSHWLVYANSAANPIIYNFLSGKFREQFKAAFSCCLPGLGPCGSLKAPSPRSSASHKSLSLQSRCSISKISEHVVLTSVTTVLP
Outline: as §1

| SMILES | IC50 [1] [nM] | IC50 [2] [nM] |
| --- | --- | --- |
| Cc1onc(-c2ccccc2Cl)c1C(=O)N1CC[C@H]1c1nc(-c2cccc(Cl)c2C)no1 [Example 72, {(S)-2-[3-(3-Chloro-2-methyl-phenyl)-[1,2,4]oxadiazol-5-yl]-azetidin-1-yl}-[3-(2-chloro-phenyl)-5-methyl-isoxazol-4-yl]-methanone] | 666 | 1400 |
| Cc1c(Cl)cccc1-c1noc([C@@H]2CCN2C(=O)c2ccccc2-c2ccccc2)n1 [Example 73, Biphenyl-2-yl-{(S)-2-[3-(3-chloro-2-methyl-phenyl)-[1,2,4]oxadiazol-5-yl]-azetidin-1-yl}-methanone] | 20 | 383 |
| COc1cc(C(=O)N2CC[C@H]2c2nc(-c3cccc(Cl)c3C)no2)c(-n2nccn2)cc1Cl [Example 74, (4-Chloro-5-methoxy-2-[1,2,3]triazol-2-yl-phenyl)-{(S)-2-[3-(3-chloro-2-methyl-phenyl)-[1,2,4]oxadiazol-5-yl]-azetidin-1-yl}-methanone] | 6 | 578 |
| COc1cc(C(=O)N2CC[C@H]2c2nc(-c3ccccc3OC(F)(F)F)no2)c(-n2nccn2)cc1Cl [Example 75, (4-Chloro-5-methoxy-2-[1,2,3]triazol-2-yl-phenyl)-{(S)-2-[3-(2-trifluoromethoxy-phenyl)-[1,2,4]oxadiazol-5-yl]-azetidin-1-yl}-methanone] | 12 | 378 |
| Cc1c(Cl)cccc1-c1noc([C@@H]2CCN2C(=O)c2ccc(Cl)cc2-n2nccn2)n1 [Example 76, {(S)-2-[3-(3-Chloro-2-methyl-phenyl)-[1,2,4]oxadiazol-5-yl]-azetidin-1-yl}-(4-chloro-2-[1,2,3]triazol-2-yl-phenyl)-methanone] | 11 | 909 |
| O=C(c1ccc(Cl)cc1-n1nccn1)N1CC[C@H]1c1nc(-c2ccccc2OC(F)(F)F)no1 [Example 77, (4-Chloro-2-[1,2,3]triazol-2-yl-phenyl)-{(S)-2-[3-(2-trifluoromethoxy-phenyl)-[1,2,4]oxadiazol-5-yl]-azetidin-1-yl}-methanone] | 28 | 616 |
| Cc1ccc(C(=O)N2CC[C@H]2c2nc(-c3cccc(Cl)c3C)no2)c(-n2nccn2)c1 [Example 78, {(S)-2-[3-(3-Chloro-2-methyl-phenyl)-[1,2,4]oxadiazol-5-yl]-azetidin-1-yl}-(4-methyl-2-[1,2,3]triazol-2-yl-phenyl)-methanone] | 22 | 646 |
| Cc1ccc(C(=O)N2CC[C@H]2c2nc(-c3ccccc3OC(F)(F)F)no2)c(-n2nccn2)c1 [Example 79, (4-Methyl-2-[1,2,3]triazol-2-yl-phenyl)-{(S)-2-[3-(2-trifluoromethoxy-phenyl)-[1,2,4]oxadiazol-5-yl]-azetidin-1-yl}-methanone] | 17 | 338 |
| Cc1c(Cl)cccc1-c1noc([C@@H]2CCN2C(=O)c2cc(Cl)ccc2-n2nccn2)n1 [Example 80, {(S)-2-[3-(3-Chloro-2-methyl-phenyl)-[1,2,4]oxadiazol-5-yl]-azetidin-1-yl}-(5-chloro-2-[1,2,3]triazol-2-yl-phenyl)-methanone] | 49 | 756 |
| O=C(c1cc(Cl)ccc1-n1nccn1)N1CC[C@H]1c1nc(-c2ccccc2OC(F)(F)F)no1 [Example 81, (5-Chloro-2-[1,2,3]triazol-2-yl-phenyl)-{(S)-2-[3-(2-trifluoromethoxy-phenyl)-[1,2,4]oxadiazol-5-yl]-azetidin-1-yl}-methanone] | 47 | 338 |
| Cc1cc(-n2nccn2)c(C(=O)N2CC[C@H]2c2nc(-c3cccc(Cl)c3C)no2)cc1Cl [Example 82, {(S)-2-[3-(3-Chloro-2-methyl-phenyl)-[1,2,4]oxadiazol-5-yl]-azetidin-1-yl}-(5-chloro-4-methyl-2-[1,2,3]triazol-2-yl-phenyl)-methanone] | 10 | 171 |

More lines, now with the values ahead:

| IC50 [1] [nM] | IC50 [2] [nM] | SMILES |
| --- | --- | --- |
| 13 | 167 | Cc1cc(-n2nccn2)c(C(=O)N2CC[C@H]2c2nc(-c3ccccc3OC(F)(F)F)no2)cc1Cl [Example 83, (5-Chloro-4-methyl-2-[1,2,3]triazol-2-yl-phenyl)-{(S)-2-[3-(2-trifluoromethoxy-phenyl)-[1,2,4]oxadiazol-5-yl]-azetidin-1-yl}-methanone] |
| 11 | 103 | Cc1ccc(-n2nccn2)c(C(=O)N2CC[C@H]2c2noc(-c3ccccc3OC(F)(F)F)n2)c1 [Example 84, (5-Methyl-2-[1,2,3]triazol-2-yl-phenyl)-{(S)-2-[5-(2-trifluoromethoxy-phenyl)-[1,2,4]oxadiazol-3-yl]-azetidin-1-yl}-methanone] |
| 3 | 34 | Cc1cc(C(=O)N2CC[C@H]2c2noc(-c3ccccc3OC(F)(F)F)n2)c(-n2nccn2)cc1C [Example 85, (4,5-Dimethyl-2-[1,2,3]triazol-2-yl-phenyl)-{(S)-2-[5-(2-trifluoromethoxy-phenyl)-[1,2,4]oxadiazol-3-yl]-azetidin-1-yl}-methanone] |
| 4 | 193 | COc1cc(C(=O)N2CC[C@H]2c2noc(-c3ccccc3OC(F)(F)F)n2)c(-n2nccn2)cc1C [Example 86, (5-Methoxy-4-methyl-2-[1,2,3]triazol-2-yl-phenyl)-{(S)-2-[5-(2-trifluoromethoxy-phenyl)-[1,2,4]oxadiazol-3-yl]-azetidin-1-yl}-methanone] |
| 78 | 1340 | COc1cc(C(=O)N2CC[C@H]2c2noc(-c3ccccc3OC(F)(F)F)n2)c(-n2nccn2)cc1F [Example 87, (4-Fluoro-5-methoxy-2-[1,2,3]triazol-2-yl-phenyl)-{(S)-2-[5-(2-trifluoromethoxy-phenyl)-[1,2,4]oxadiazol-3-yl]-azetidin-1-yl}-methanone] |
| 0.6 | 178 | COc1cc(C(=O)N2CC[C@H]2c2noc(-c3cccc(F)c3OC)n2)c(-n2nccn2)cc1C [Example 88, {(S)-2-[5-(3-Fluoro-2-methoxy-phenyl)-[1,2,4]oxadiazol-3-yl]-azetidin-1-yl}-(5-methoxy-4-methyl-2-[1,2,3]triazol-2-yl-phenyl)-methanone] |
| 3 | 82 | Cc1cc(C(=O)N2CC[C@H]2c2noc(-c3cccc(F)c3C)n2)c(-n2nccn2)cc1C [Example 89, (4,5-Dimethyl-2-[1,2,3]triazol-2-yl-phenyl)-{(S)-2-[5-(3-fluoro-2-methyl-phenyl)-[1,2,4]oxadiazol-3-yl]-azetidin-1-yl}-methanone] |
| 2 | 52 | CCOc1ncccc1-c1nc([C@@H]2CCN2C(=O)c2cc(C)ccc2-n2nccn2)no1 [Example 90, {(S)-2-[5-(2-Ethoxy-pyridin-3-yl)-[1,2,4]oxadiazol-3-yl]-azetidin-1-yl}-(5-methyl-2-[1,2,3]triazol-2-yl-phenyl)-methanone] |
| 0.6 | 17 | CCOc1ncccc1-c1nc([C@@H]2CCN2C(=O)c2cc(C)c(C)cc2-n2nccn2)no1 [Example 91, (4,5-Dimethyl-2-[1,2,3]triazol-2-yl-phenyl)-{(S)-2-[5-(2-ethoxy-pyridin-3-yl)-[1,2,4]oxadiazol-3-yl]-azetidin-1-yl}-methanone] |
